Measurements: ChEMBL document CHEMBL3046624, “Synthesis, single crystal X-ray studies and antimicrobial activities of novel Indole barbiturates” (Med Chem Res, 2012)
Calls of active or inactive are those of the source.

Tests used:
Type in all cases: functional, organism-based
Candida albicans [1] = test: Growth inhibition of Candida albicans at 100 ug/ml by cup-plate method
Saccharomyces cerevisiae [2] = test: Growth inhibition of Saccharomyces cerevisiae at 200 ug/ml by cup-plate method
Saccharomyces cerevisiae [3] = test: Growth inhibition of Saccharomyces cerevisiae at 100 ug/ml by cup-plate method
Candida albicans [4] = test: Growth inhibition of Candida albicans at 200 ug/ml by cup-plate method
Saccharomyces cerevisiae [5] = test: Growth inhibition of Saccharomyces cerevisiae at 300 ug/ml by cup-plate method
Candida albicans [6] = test: Growth inhibition of Candida albicans at 300 ug/ml by cup-plate method
Escherichia coli [7] = test: Growth inhibition of Escherichia coli at 100 ug/ml by cup-plate method
Proteus vulgaris [8] = test: Growth inhibition of Proteus vulgaris at 200 ug/ml by cup-plate method
Bacillus subtilis [9] = test: Growth inhibition of Bacillus subtilis at 200 ug/ml by cup plate method
Staphylococcus aureus [10] = test: Growth inhibition of Staphylococcus aureus at 100 ug/ml by cup-plate method
Bacillus subtilis [11] = test: Growth inhibition of Bacillus subtilis at 300 ug/ml by cup plate method
Proteus vulgaris [12] = test: Growth inhibition of Proteus vulgaris at 300 ug/ml by cup-plate method
Proteus vulgaris [13] = test: Growth inhibition of Proteus vulgaris at 100 ug/ml by cup-plate method
Pseudomonas aeruginosa [14] = test: Growth inhibition of Pseudomonas aeruginosa at 300 ug/ml by cup-plate method
Staphylococcus aureus [15] = test: Growth inhibition of Staphylococcus aureus at 300 ug/ml by cup-plate method
Pseudomonas aeruginosa [16] = test: Growth inhibition of Pseudomonas aeruginosa at 100 ug/ml by cup-plate method
Escherichia coli [17] = test: Growth inhibition of Escherichia coli at 300 ug/ml by cup-plate method
Bacillus subtilis [18] = test: Growth inhibition of Bacillus subtilis at 100 ug/ml by cup plate method
Escherichia coli [19] = test: Growth inhibition of Escherichia coli at 200 ug/ml by cup-plate method
Staphylococcus aureus [20] = test: Growth inhibition of Staphylococcus aureus at 200 ug/ml by cup-plate method
Pseudomonas aeruginosa [21] = test: Growth inhibition of Pseudomonas aeruginosa at 200 ug/ml by cup-plate method

Measured: growth inhibition (GI)

CC(=O)N1CCN(c2ccc(OCC3COC(Cn4ccnc4)(c4ccc(Cl)cc4Cl)O3)cc2)CC1 (stereo not given)
active: Candida albicans [1] | Saccharomyces cerevisiae [2] | Saccharomyces cerevisiae [3] | Candida albicans [4] | Saccharomyces cerevisiae [5] | Candida albicans [6]

CCn1c(-c2ccccc2)c(C=C2C(=O)NC(=O)NC2=O)c2ccccc21
active: Candida albicans [1] | Saccharomyces cerevisiae [2] | Saccharomyces cerevisiae [3] | Candida albicans [4] | Bacillus subtilis [11] | Saccharomyces cerevisiae [5] | Candida albicans [6] | Pseudomonas aeruginosa [14] | Pseudomonas aeruginosa [16] | Pseudomonas aeruginosa [21]
inactive: all other assays above

O=C1NC(=O)C(=Cc2c(-c3ccccc3)n(CC(=O)c3ccc(Br)cc3)c3ccccc23)C(=O)N1
active: all assays above

C=CCn1c(-c2ccccc2)c(C=C2C(=O)NC(=O)NC2=O)c2ccccc21
active: all assays above

COc1ccc(C(=O)Cn2c(-c3ccccc3)c(C=C3C(=O)NC(=O)NC3=O)c3ccccc32)cc1
inactive: Saccharomyces cerevisiae [2] | Saccharomyces cerevisiae [3] | Escherichia coli [7] | Bacillus subtilis [9] | Staphylococcus aureus [10] | Staphylococcus aureus [15] | Escherichia coli [17] | Bacillus subtilis [18] | Escherichia coli [19] | Staphylococcus aureus [20]
active: all other assays above

O=C1NC(=O)C(=Cc2c(-c3ccccc3)n(CC(=O)c3ccc(Cl)cc3)c3ccccc23)C(=O)N1
active: all assays above

O=C1NC(=O)C(=Cc2c(-c3ccccc3)n(CC(=O)c3ccccc3)c3ccccc23)C(=O)N1
active: Saccharomyces cerevisiae [2] | Saccharomyces cerevisiae [3] | Proteus vulgaris [12] | Saccharomyces cerevisiae [5] | Proteus vulgaris [13] | Pseudomonas aeruginosa [14] | Pseudomonas aeruginosa [16] | Pseudomonas aeruginosa [21]
inactive: all other assays above

CC1(C)S[C@@H]2[C@H](NC(=O)[C@H](N)c3ccccc3)C(=O)N2[C@H]1C(=O)O
inactive: Candida albicans [1] | Candida albicans [4] | Candida albicans [6]
not listed: Saccharomyces cerevisiae [2] | Saccharomyces cerevisiae [3] | Saccharomyces cerevisiae [5]
active: all other assays above
